For 28 compounds, IC50 results are on record in US11649255B2, “Indazoles as hematopoietic progenitor kinase 1 (HPK1) inhibitors and methods using same” (1st Biotherapeutics, Inc., priority 2020, dated 2023).

Chain of recombinant human HPK1 (Q92918 whole entry): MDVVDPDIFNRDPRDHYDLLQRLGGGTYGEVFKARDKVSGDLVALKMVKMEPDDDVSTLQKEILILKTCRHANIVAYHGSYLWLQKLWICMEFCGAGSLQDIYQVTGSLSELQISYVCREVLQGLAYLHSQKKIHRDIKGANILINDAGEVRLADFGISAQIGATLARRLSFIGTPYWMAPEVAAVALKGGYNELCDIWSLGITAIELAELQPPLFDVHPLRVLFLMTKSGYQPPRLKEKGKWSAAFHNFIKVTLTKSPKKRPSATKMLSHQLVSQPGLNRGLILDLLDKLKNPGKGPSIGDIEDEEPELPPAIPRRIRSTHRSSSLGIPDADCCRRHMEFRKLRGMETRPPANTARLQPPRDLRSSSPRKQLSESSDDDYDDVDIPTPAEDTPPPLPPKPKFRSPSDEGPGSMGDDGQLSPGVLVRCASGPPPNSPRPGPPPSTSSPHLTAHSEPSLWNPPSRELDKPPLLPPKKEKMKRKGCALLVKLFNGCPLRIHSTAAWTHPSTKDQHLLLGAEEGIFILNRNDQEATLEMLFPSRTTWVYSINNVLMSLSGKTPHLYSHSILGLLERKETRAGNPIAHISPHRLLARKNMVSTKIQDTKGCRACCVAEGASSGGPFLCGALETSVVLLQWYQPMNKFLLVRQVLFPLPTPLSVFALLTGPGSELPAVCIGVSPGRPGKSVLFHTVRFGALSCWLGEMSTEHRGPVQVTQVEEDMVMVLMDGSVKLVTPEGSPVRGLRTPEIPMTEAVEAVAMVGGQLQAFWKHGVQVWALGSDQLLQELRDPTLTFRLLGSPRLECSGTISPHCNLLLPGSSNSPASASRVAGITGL

The experiment concerns the target recombinant human HPK1 (Homo sapiens (Human), UniProt Q92918). Put plainly: HPK1 kinase assay (ADP-Glo). To be noted: 25 μM ATP, MBP substrate. In kind it is biochemical. In outline: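 Activity was read as ADP formed, detected by ADP-Glo luminescence after the reaction of 5 ng recombinant human HPK1 with MBP and ATP (stocks 0.5 μg/μl and 25 μM) for 40 min at 30 °C. Buffer was Tris pH 7.5 with MgCl2, BSA and DTT, with compound in 0.5% DMSO. IC50 came from inhibition curves.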
Consider `CN(Cc1cccnc1)c1c(F)c(Cl)c(-c2ccc3nc(NC(=O)[C@@H]4C[C@@H]4F)cn3c2)c2cn[nH]c12` [Example 349, (1S,2S)-N-(6-(5-chloro-6-fluoro-7-(methyl(pyridin-3-ylmethyl)amino)-1H-indazol-4-yl)imidazo[1,2-a]pyridin-2-yl)-2-fluorocyclopropane-1-carboxamide], for which the IC50 is under 100 nM.

For the compound `Cc1c(F)c(F)c2[nH]ncc2c1-c1ccn2nc(NC(=O)[C@@H]3C[C@@H]3F)cc2c1` [Example 481, (1S,2S)-N-(5-(6,7-difluoro-5-methyl-1H-indazol-4-yl)pyrazolo[1,5-a]pyridin-2-yl)-2-fluorocyclopropane-1-carboxamide], the IC50 was under 100 nM.

On to `CN(c1c(F)c(Cl)c(-c2ccn3nc(NC(=O)[C@@H]4C[C@@H]4F)cc3c2)c2cn[nH]c12)C1CCC(O)C1` (stereo partly drawn) [Example 555, (1S,2S)-N-(5-(5-chloro-6-fluoro-7-((3-hydroxycyclopentyl)(methyl)amino)-1H-indazol-4-yl)pyrazolo[1,5-a]pyridin-2-yl)-2-fluorocyclopropane-1-carboxamide], for which the concentration for half-maximal inhibition (IC50) is under 100 nM.

`Cc1c(F)cc2[nH]nc(C)c2c1-c1ccn2nc(NC(=O)[C@@H]3C[C@@H]3F)cc2c1` [Example 470, (1S,2S)-2-fluoro-N-(5-(6-fluoro-3,5-dimethyl-1H-indazol-4-yl)pyrazolo[1,5-a]pyridin-2-yl)cyclopropane-1-carboxamide]: the 50% inhibitory concentration (IC50) fell in the range of 101 to 500 nM.

With `CC(C)N(C)c1c(F)c(Cl)c(-c2ccc3nc(NC(=O)[C@@H]4C[C@@H]4F)cn3c2)c2cn[nH]c12` [Example 360, (1S,2S)-N-(6-(5-chloro-6-fluoro-7-(isopropyl(methyl)amino)-1H-indazol-4-yl)imidazo[1,2-a]pyridin-2-yl)-2-fluorocyclopropane-1-carboxamide], the half-inhibitory concentration (IC50) is under 100 nM.

On to `Cc1c(F)cc2[nH]ncc2c1-c1ccn2nc(NC(=O)[C@@H]3C[C@@H]3F)cc2c1` [Example 460, (1S,2S)-2-fluoro-N-(5-(6-fluoro-5-methyl-1H-indazol-4-yl)pyrazolo[1,5-a]pyridin-2-yl)cyclopropane-1-carboxamide], for which the IC50 was under 100 nM.

On to `Cc1c(F)c(C(F)F)c2[nH]ncc2c1-c1ccc2nc(NC(=O)[C@@H]3C[C@@H]3F)cn2c1` [Example 343, (1S,2S)-N-(6-(7-(difluoromethyl)-6-fluoro-5-methyl-1H-indazol-4-yl)imidazo[1,2-a]pyridin-2-yl)-2-fluorocyclopropane-1-carboxamide], for which the IC50 is under 100 nM.

For the compound `CNC(C)c1c(F)c(Cl)c(-c2ccc3nc(NC(=O)[C@@H]4C[C@@H]4F)cn3c2)c2cn[nH]c12` (stereo partly drawn) [Example 402, (1S,2S)-N-(6-(5-chloro-6-fluoro-7-(1-(methylamino)ethyl)-1H-indazol-4-yl)imidazo[1,2-a]pyridin-2-yl)-2-fluorocyclopropane-1-carboxamide], the IC50 lay within 101 to 500 nM.

For `CC(=O)N(C)c1c(F)c(C)c(-c2ccc3nc(NC(=O)[C@@H]4C[C@@H]4F)sc3c2)c2cn[nH]c12` [Example 120, (1S,2S)-2-fluoro-N-(6-(6-fluoro-5-methyl-7-(N-methylacetamido)-1H-indazol-4-yl)benzo[d]thiazol-2-yl)cyclopropane-1-carboxamide], the concentration for half-maximal inhibition (IC50) was under 100 nM.

On to `CN1CCN(c2c(F)c(Cl)c(-c3ccc4nc(NC(=O)[C@@H]5C[C@@H]5F)cn4c3)c3cn[nH]c23)C1=O` [Example 358, (1S,2S)-N-(6-(5-chloro-6-fluoro-7-(3-methyl-2-oxoimidazolidin-1-yl)-1H-indazol-4-yl)imidazo[1,2-a]pyridin-2-yl)-2-fluorocyclopropane-1-carboxamide], for which the concentration for half-maximal inhibition (IC50) was under 100 nM.

Take `CNC(=O)N(C)c1c(F)c(Cl)c(-c2ccn3nc(NC(=O)[C@@H]4C[C@@H]4F)cc3c2)c2cn[nH]c12` [Example 664, (1S,2S)-N-(5-(5-chloro-7-(1,3-dimethylureido)-6-fluoro-1H-indazol-4-yl)pyrazolo[1,5-a]pyridin-2-yl)-2-fluorocyclopropane-1-carboxamide]: the IC50 was under 100 nM.

For the compound `Nc1c(F)c(Cl)c(-c2ccn3nc(NC(=O)[C@@H]4C[C@@H]4F)cc3c2)c2cn[nH]c12` [Example 510, (1S,2S)-N-(5-(7-amino-5-chloro-6-fluoro-1H-indazol-4-yl)pyrazolo[1,5-a]pyridin-2-yl)-2-fluorocyclopropane-1-carboxamide], the IC50 was under 100 nM.

For the compound `O=C(Nc1nc2ccc(-c3cc(Cl)cc4[nH]ncc34)cc2s1)C1CC1` [Example 20, N-(6-(6-chloro-1H-indazol-4-yl)benzo[d]thiazol-2-yl)cyclopropanecarboxamide], the IC50 is over 1000 nM.

In the case of `O=C(Nc1nc2ccc(-c3c(Cl)c(F)c(SCCO)c4[nH]ncc34)cc2s1)[C@@H]1C[C@@H]1F` [Example 79, (1S,2S)-N-(6-(5-chloro-6-fluoro-7-((2-hydroxyethyl)thio)-1H-indazol-4-yl)benzo[d]thiazol-2-yl)-2-fluorocyclopropane-1-carboxamide], the concentration for half-maximal inhibition (IC50) is under 100 nM.

In the case of `CSc1c(F)c(F)c2[nH]ncc2c1-c1ccc2nc(NC(=O)[C@@H]3C[C@@H]3F)cn2c1` [Example 304, (1S,2S)-N-(6-(6,7-difluoro-5-(methylthio)-1H-indazol-4-yl)imidazo[1,2-a]pyridin-2-yl)-2-fluorocyclopropane-1-carboxamide], the IC50 is under 100 nM.

For `CSc1ccc2[nH]ncc2c1-c1ccn2nc(NC(=O)[C@@H]3C[C@@H]3F)cc2c1` [Example 463, (1S,2S)-2-fluoro-N-(5-(5-(methylthio)-1H-indazol-4-yl)pyrazolo[1,5-a]pyridin-2-yl)cyclopropane-1-carboxamide], the half-inhibitory concentration (IC50) was under 100 nM.

With `Cc1c(F)c(Br)c2[nH]ncc2c1-c1ccc2nc(NC(=O)[C@@H]3C[C@@H]3F)cn2c1` [Example 268, (1S,2S)-N-(6-(7-bromo-6-fluoro-5-methyl-1H-indazol-4-yl)imidazo[1,2-a]pyridin-2-yl)-2-fluorocyclopropane-1-carboxamide], the half-maximal inhibitory concentration (IC50) was under 100 nM.

In the case of `O=C(Nc1nc2ccc(-c3cc(F)c(OC(F)(F)F)c4[nH]ncc34)cc2s1)[C@@H]1C[C@@H]1F` [Example 140, (1S,2S)-2-fluoro-N-(6-(6-fluoro-7-(trifluoromethoxy)-1H-indazol-4-yl)benzo[d]thiazol-2-yl)cyclopropane-1-carboxamide], the IC50 is over 1000 nM.

Turning to `O=C(Nc1cc2cc(-c3cc(F)c(OC(F)(F)F)c4[nH]ncc34)ccn2n1)[C@@H]1C[C@@H]1F` [Example 587, (1S,2S)-2-fluoro-N-(5-(6-fluoro-7-(trifluoromethoxy)-1H-indazol-4-yl)pyrazolo[1,5-a]pyridin-2-yl)cyclopropane-1-carboxamide], the IC50 is under 100 nM.

As to `O=C(Nc1nc2ccc(-c3c(Cl)c(F)c(NCC4CNC4)c4[nH]ncc34)cc2s1)[C@@H]1C[C@@H]1F` [Example 95, (1S,2S)-N-(6-(7-((azetidin-3-ylmethyl)amino)-5-chloro-6-fluoro-1H-indazol-4-yl)benzo[d]thiazol-2-yl)-2-fluorocyclopropanecarboxamide], the IC50 was under 100 nM.

With `COc1cc(C)c(-c2ccc3nc(NC(=O)[C@@H]4C[C@@H]4F)cn3c2)c2cn[nH]c12` [Example 285, (1S,2S)-2-fluoro-N-(6-(7-methoxy-5-methyl-1H-indazol-4-yl)imidazo[1,2-a]pyridin-2-yl)cyclopropane-1-carboxamide], the half-inhibitory concentration (IC50) was under 100 nM.

For the compound `CC(Nc1c(F)c(Cl)c(-c2ccn3nc(NC(=O)[C@@H]4C[C@@H]4F)cc3c2)c2cn[nH]c12)C(F)F` (stereo partly drawn) [Example 657, (1S,2S)-N-(5-(5-chloro-7-((1,1-difluoropropan-2-yl)amino)-6-fluoro-1H-indazol-4-yl)pyrazolo[1,5-a]pyridin-2-yl)-2-fluorocyclopropane-1-carboxamide], the concentration for half-maximal inhibition (IC50) is under 100 nM.

On to `O=C(Nc1cn2cc(-c3c(Cl)c(F)c(Cn4nccn4)c4[nH]ncc34)ccc2n1)[C@@H]1C[C@@H]1F` [Example 383, (1S,2S)-N-(6-(7-((2H-1,2,3-triazol-2-yl)methyl)-5-chloro-6-fluoro-1H-indazol-4-yl)imidazo[1,2-a]pyridin-2-yl)-2-fluorocyclopropane-1-carboxamide], for which the half-maximal inhibitory concentration (IC50) is under 100 nM.

With `CN(C)CCOc1ccc2[nH]ncc2c1-c1ccc2nc(NC(=O)[C@@H]3C[C@@H]3F)sc2c1` [Example 31, (1S,2S)-N-(6-(5-(2-(dimethylamino)ethoxy)-1H-indazol-4-yl)benzo[d]thiazol-2-yl)-2-fluorocyclopropane-1-carboxamide], the IC50 was over 1000 nM.

In the case of `CS(=O)(=O)c1c(F)c(Cl)c(-c2ccc3nc(NC(=O)[C@@H]4C[C@@H]4F)sc3c2)c2cn[nH]c12` [Example 119, (1S,2S)-N-(6-(5-chloro-6-fluoro-7-(methylsulfonyl)-1H-indazol-4-yl)benzo[d]thiazol-2-yl)-2-fluorocyclopropane-1-carboxamide], the concentration for half-maximal inhibition (IC50) lay in the range of 101 to 500 nM.

Take `CN(Nc1c(F)c(Cl)c(-c2ccc3nc(NC(=O)[C@@H]4C[C@@H]4F)sc3n2)c2cn[nH]c12)C(=O)OC(C)(C)C` [Example 192, tert-butyl 2-(5-chloro-6-fluoro-4-(2-((1S,2S)-2-fluorocyclopropane-1-carboxamido)thiazolo[5,4-b]pyridin-5-yl)-1H-indazol-7-yl)-1-methylhydrazine-1-carboxylate]: the IC50 was under 100 nM.

On to `CN(c1ccncc1)c1c(F)c(Cl)c(-c2ccn3nc(NC(=O)[C@@H]4C[C@@H]4F)cc3c2)c2cn[nH]c12` [Example 614, (1S,2S)-N-(5-(5-chloro-6-fluoro-7-(methyl(pyridin-4-yl)amino)-1H-indazol-4-yl)pyrazolo[1,5-a]pyridin-2-yl)-2-fluorocyclopropane-1-carboxamide], for which the IC50 was under 100 nM.

As for `CC(=O)Nc1c(F)c(Cl)c(-c2ccc3nc(NC(=O)[C@@H]4C[C@@H]4F)sc3c2)c2cn[nH]c12` [Example 108, (1S,2S)-N-(6-(7-acetamido-5-chloro-6-fluoro-1H-indazol-4-yl)benzo[d]thiazol-2-yl)-2-fluorocyclopropane-1-carboxamide], the IC50 was under 100 nM.

In general, IC50 refers to the concentration that gives 50% inhibition.
